This is an account of results in patent US20240026458A1, “Method for Determining Sensitivity to an Antineoplastic Agent” (UNIVERSITÉ LIBRE DE BRUXELLES, priority 2020, published 2024).

The subject of one assay is H3K27me3. Kind of assay: Western blot of global H3K27me3 in cells treated with inhibitor. The class given is cell-based, human. The note with it: versus DMSO. Here is the method: The cells were lysed in cell lysis buffer (Cell Signaling, catalog #9803) with phosphatase inhibitor cocktail (Cell Signaling, catalog 5870) and 1 mM PMSF (Sigma, Cat #P7626) for 5 minutes on ice, sonicated 5 times 10 seconds and then centrifuged for 10 min at 14.000 rpm at 4° C. A range of 5 to 30 micrograms of cell lysate was loaded in NuPage 10% Bis-Tris gel (Invitrogen, Cat #NP0315BOX) and separated by electrophoresis. Proteins were transferred on nitrocellulose membranes (Thermo Scientific, Cat #88018). The membranes were incubated overnight with anti-phospho-CAMK2 (Rabbit, 1/133, Cell Signaling, clone D21E4, cat #12716) or anti-phospho-SCR Tyr416 (Rabbit, 1:3000, Cell Signaling, clone D49G4, Cat #6943) or anti-H3K27Me3 Lys27 (Rabbit, 1:3000, Millipore, Cat #17-622) or anti-phospho-MEK1/MEK2 Ser218, SER222, Ser226 (Rabbit, 1:1000, Invitrogen, Cat #44-454G) or anti-phospho-EGFR Y1197 (Rat, 1:500, R&D, MAB8058), anti-CAMK2 (pan) (Rabbit, 1/125, Cell Signaling, clone D11A10, cat #4436) or anti-SRC (Rabbit, 1:1000, Cell Signaling, clone32G6, Cat #2123) or anti-H3 (Rabbit, 1:6000, Abcam, Cat #ab1791) or anti-MEK1/MEK2 (Rabbit, 1:1000, Invitrogen, Cat #PA5-31917) or anti-EGFR (Rabbit, 1:1000, Cell Signaling, clone D38B1, Cat #4267), anti-YES (Rabbit, 1:1000, Cell Signaling, clone D9P3E, Cat #65890) and anti-β-actin (1:2000, Abcam, Cat #ab8227). […]
Background: Immunoblotting shows a protein as a band on a membrane.

Another assay relates to SOX2 expression. The experiment in a line: SOX2 mRNA (RT-qPCR) and protein (Western blot) in FAT1 WT cells treated with EZH2 inhibitor. The class given is cell-based, human. The note with it: GSK343 500 nM, 7 days, versus DMSO. How it is done:
(§1) The cells were lysed in cell lysis buffer (Cell Signaling, catalog #9803) with phosphatase inhibitor cocktail (Cell Signaling, catalog 5870) and 1 mM PMSF (Sigma, Cat #P7626) for 5 minutes on ice, sonicated 5 times 10 seconds and then centrifuged for 10 min at 14.000 rpm at 4° C. A range of 5 to 30 micrograms of cell lysate was loaded in NuPage 10% Bis-Tris gel (Invitrogen, Cat #NP0315BOX) and separated by electrophoresis. Proteins were transferred on nitrocellulose membranes (Thermo Scientific, Cat #88018). […]
RNA extraction from FACS isolated cells was performed using RNeasy micro kit (QIAGEN) according to the manufacturer's recommendations. For real-time PCR, after nanodrop quantification, the first strand cDNA was synthesized using Superscript II (Invitrogen) and random hexamers (Roche) in […] final volume. Control of genomic contaminations was measured for each sample by performing the same procedure with or without reverse transcriptase. Quantitative PCR assays were performed using 1 ng of cDNA as template, SYBRGreen mix (Applied Bioscience) on Light Cycler 96 (Roche) real-time PCR system. […]
In general terms: Quantitative PCR measures a nucleic acid by following its amplification.

In assay [1] the test system is FAT1 WT and FAT1 KO human SCC cells (A388). The experiment in a line: Drug sensitivity assay (cell viability by FACS), FAT1 WT versus FAT1 KO cells. The class given is cell-based. The note with it: cell viability at 48 h, serial dilution of inhibitor, 5% FBS medium. How it is done:
For the drug sensitivity assay, cells have been seeded at a density of 4000 cells/well in a 96 well plate. […] 48 hours after the start of treatment, cells have been harvested by trypsinization, and quantified by counting the number of living cells by FACS. Living cells were selected by forward and side scatter and by Hoechst dye exclusion. Each data point is the result of at least three independent replicates; each of the replicates is evaluated using a technical duplicate. Drug response curves and IC50 values have been calculated using the Prism8 software.
(In general: Flow cytometry measures light scatter and fluorescence of single cells or particles in a stream.)

In the next assay the test system is SRC/YES phosphorylation. Kind of assay: Western blot of phosphorylated SRC/YES in FAT1 KO cells treated with inhibitor. The class given is cell-based, human. The note with it: KN93 10 μM, 96 h, versus DMSO. Here is the method: A388 cells (human skin SCC) cells were maintained in DMEM medium supplemented with 10% FBS, 100 U/ml Pen/Strep and 2 mM L-glutamine. 293T cells were maintained in DMEM (Gibco) supplemented with 10% FBS, 2 mM Glutamine, 100 U/ml Pen/Strep solution, MEM Non-Essential Amino Acids Solution and Pyruvate. All cell lines were acquired from ATCC and cultured at 37 degrees with 20% 02 and 5% CO2.
as §1

A further assay relates to FAT1 KO human SCC cells. The experiment in a line: Expression of YAP1, ZEB1, E-Cadherin and SOX2 (immunostaining) in FAT1 KO cells treated with CAMK2 or SRC inhibitors. The class given is cell-based. How it is done: After 96 h the cells were collected for WB as described above or for FACS analysis. For immunostaining present inventors followed the same treatment but the cells were plated previously on coverslips covered with gelatin.
After 72 h the cells were collected for WB or immunostaining as described above.

The subject of a further assay is surface CD44. The experiment in a line: FACS analysis of surface CD44 in FAT1 KO cells treated with inhibitor. The class given is cell-based, human. The note with it: CAMK2 inhibitor (KN93) 10 μM, versus DMSO. How it is done: CD44 expression in FAT1 WT and FAT1 KO human SCC cells was performed after trypsinization of cells and incubation with APC conjugated anti-CD44 (Clone IM7, BioLegend Cat #103011, dilution 1:50) antibody. Living tumor cells were selected by forward and side scatter, doublets discriminating and DAPI dye exclusion.
For CAMK2 inhibition present inventors used CAMK2 inhibitor KN93 (Selleckchem Cat #57423, dissolved in DMSO) at 10 μM and present inventors incubated cells during 96 h refreshing the medium once after 48 h. After 96 h the cells were collected for WB as described above or for FACS analysis. For immunostaining present inventors followed the same treatment but the cells were plated previously on coverslips covered with gelatin.

[2] abbreviates: FAT1 KO cells treated with inhibitor (data not shown).

In the case of `CCCc1cc(C)[nH]c(=O)c1CNC(=O)c1cc(-c2ccnc(N3CCN(C)CC3)c2)cc2c1cnn2C(C)C` [GSK343], the H3K27me3 result with H3K27me3 (FAT1 WT cells, GSK343 500 nM, 7 days) is recorded as “decreased”. Also, in the assay with SOX2 expression, the “SOX2 mRNA expression” value is “increased” and the SOX2 protein expression result is reported as “increased”.

For the molecule `COc1ccc(S(=O)(=O)N(CCO)c2ccccc2CN(C)C/C=C/c2ccc(Cl)cc2)cc1` [KN93], in assay [1], the “sensitivity of FAT1 KO cells as compared to FAT1 WT cells” value is “significantly more sensitive”. The SRC/YES phosphorylation levels result in the assay on SRC/YES phosphorylation was “greatly decreased”. The SOX2 expression entry in the assay with FAT1 KO human SCC cells (FAT1 KO TCs treated with inhibitor (data not shown)) is given as “decrease”. Further, in the assay on FAT1 KO human SCC cells (setting [2]), the E-Cadherin expression entry is “increase”, the ZEB1 result is on record as “strong decrease”, the colony morphology result is recorded as “more compact epithelial colonies” and the “nuclear YAP1” value is reported as “strong decrease”. In the assay with H3K27me3 (FAT1 KO cells treated with CAMK2 inhibitor), the “global levels of H3K27me3” value is listed as “increased”. For the same molecule, the “levels of surface CD44” value in the assay with surface CD44 is “decreased significantly”.
